The values below come from patent US5652222A, “Selective inhibition of leukemic cell proliferation by bcr-abl antisense oligonucleotides” (Temple University-of The Commonwealth System of Higher …, priority 1993, dated 1997).

A value given as a limit tells only on which side of the number the result lay.

Data set [1] relates to cell line ALL-1 (b1a2 junction). Put plainly: Leukemic cell number of Ph1-positive ALL cell line expressing b1a2 junction. As to conditions: 50 μg at time zero, 25 μg/ml at 24 and 48 h; vs control and mismatch-treated cultures (FIG. 6). Format: cell-based, human.
For a further data set, the system named is K562. As to conditions: Caracciolo et al., Science 245; cited from earlier work.
The test system of another data set is bcr-abl protein. As to conditions: cited from earlier work.
Data set [2] is classed as in vivo, SCID mice. The note with it: mice treated with bcr-abl antisense. As for the experimental part:
Severe combined immunodeficient (SCID) mice injected with leukemia cells developed a disease process closely resembling that in humans. […] The cell-associated accumulation of antisense oligomer in various organs reached 4-60 μM, which is more than adequate to inhibit growth of leukemic cells. (See FIG. 7).

Data set [3] relates to BV173 cells (cALL antigen (CALLA)-positive cells). Put plainly: Immunofluorescence / flow cytometry of CALLA-positive cells in tissues of leukemic SCID mice. In kind it is in vivo, SCID mice (human leukemic cells). As for the experimental part:
A first assay comprised an immunofluorescence analysis of cALL antigen (CALLA)-positive cells. All BV173 cells but not normal murine hematopoietic cells express this antigen (assay sensitivity=10^-2). Single cell suspensions were prepared for flow cytometry analysis from peripheral blood, spleen and bone marrow cells of the leukemic SCID mice by centrifugation on a lymphocyte-M gradient (Cedarlane Labs, Ltd., Ontario, Canada). Cells (1×10^5) were stained with the FITC-conjugated mouse anti-CALLA monoclonal antibody (Becton-Dickinson Immunocytometry Systems, San Jose, Calif.) to human CD10 antigen. After staining, cells were washed and analyzed by flow cytometry using the Epics Profile Analyzer (Coulter Electronic).
(§1) To determine whether synthetic phosphorothioate oligodeoxynucleotides targeted against the bcr-abl junction of […] cells would modify the disease process in SCID mice. SCID mice were injected with 10^6 BV173 cells. The mice then received 1 mg of sense (ATCAATAAGG AAGCCCTTCAGCG, SEQ ID NO:34) or antisense ([…] ATTGAT, SEQ ID NO:29) b2/a2 bcr-abl phosphorothioate oligodeoxynucleotides (pyrogen leven <1 Eu/mg; 0.2 ml in Iscove modified Dulbecco medium in 5-10 seconds) intravenously for each of 9 consecutive days, beginning either 7 or 21 days after introducing 10^6 BV173 cells. Control mice received the diluent (iscove's modified Dulbecco medium) only. These time points approximate distinct disease stages in humans.
Background: In flow cytometry, cells or beads pass a laser one at a time.

In data set [4] the test system is BV173 cells. The data set can be described thus: Clonogenic assay of tissues of leukemic SCID mice. Format: in vivo, SCID mice (human leukemic cells). As for the experimental part: A second assay for leukemic disease comprised a clonogenic assay in semisolid medium. […] By contrast, BV173 cells formed numerous, rapidly growing colonies. To rule out the possibility that the presence of BV173 cells permitted the growth of murine progenitors, mixing experiments were carried out.
as §1
10^5 cells were plated in duplicate in 35×10 mm tissue culture dishes (Nunc, Inc., Naperville, Ill.) in HCC-4230 medium (Terry Fox Lab., Vancouver, Canada) supplemented with 2.5 mM L-glutamine, and allowed to grow for 12 days. Plates were scanned with an inverted microscope and total colony number was determined. The results are shown in FIG. 9 (C, untreated mouse; S, sense-treated mouse, AS, antisense-treated mouse).

In data set [5] the test system is BV173 cells. Put plainly: Survival of leukemic SCID mice. Format: in vivo, SCID mice (human leukemic cells). As to conditions: treatment starting from days +7 or +21 (FIG. 12).
Text: To determine the lethal dose of BV173 cells in the SCID mice, we injected from 10^3 to 10^7 cells into the tail vein and monitored survival at various times postinjection. Mice injected with 10^7, 10^6, 10^5, or 10^4 BV173 cells died 8-10, 9-12, 13-15, or 14-22 weeks later, respectively, due to leukemia cell growth as confirmed on necroscopy. Spleen weight was about 40 times higher than that in noninjected SCID mice while liver and kidneys had numerous metastases and were enlarged 10-fold as compared to noninjected mice. Mice injected with 10^3 BV173 cells were still alive 35 weeks post implantation, and leukemia was never detected. From this study, 10^6 cells was taken as a lethal dose.
as §1

Data set [6] has as its system bcr-abl (b2/a2) transcripts. The data set can be described thus: RT-PCR of bcr-abl transcripts in tissues of leukemic SCID mice. In kind it is in vivo, SCID mice (human leukemic cells). On the procedure: According to a third assay, the extent of leukemic disease was assessed by chain RT-PCR to monitor the expression of b2/a2 transcripts (assay sensitivity=[…]) in total RNA isolated from bone marrow cells, splenocytes, peripheral blood leukocytes, liver, lung and brain tissues. Depending on the number of BV173 cells injected, various numbers of leukemic cells were detected by clonogenic assay and RT-PCR in murine tissues, 3 and 6 weeks after injection. A few days before the expected death of leukemic SCID mice, approximately 80, 65, and 10% cALLA-positive cells were detected in bone marrow cells, splenocytes and peripheral blood leukocytes, respectively.
as §1
At 7 (+7) and 21 (+21) days after injecting SCID mice with 10^6 BV173 cells, single cell suspensions were prepared from various tissues. After lysing red cells with 0.83% NH4 Cl buffered with 0.17 mM Tris-HCl, pH 7.4, total RNA was extracted as described (Chomczynski and Sacchi, Anal. Biochem. 162, 156 (1987)) and the suspension was divided into two equal aliquots. Bcr-abl and β-actin transcripts were reverse-transcribed and amplified with specific primers and Taq polymerase as described by Szczylik et al., Science 253, 562 (1991). Amplification products were separated on a 2% agarose gel, transferred to a nitrocellulose filter and hybridized with a synthetic 40-base c-abl fragment or 20-base β-actinfragment end-labeled with [γ^32 -P]-ATP and polynucleotide kinase. The c-abl probe recognizes an amplified 257-bp sequence containing the bcr-abl junction: the β-actin probe recognizes a 209-bp fragment, contained within the 5' and 3' β-actin primers (Tokunaga et al., Nucleic Acids Res. 14, 2829 (1986)).

The test system of a further data set is BV173 cells (b2/a2). The data set can be described thus: Proliferation of BV173 cells expressing b2a2 junction. In kind it is cell-based, human. On the procedure:
Amplification of the bcr-abl junction with a 5' primer corresponding to bcr exon 2, and a 3' primer corresponding to abl exon 2, followed by hybridization to an 18-mer specific for the b2/a2 or the b3/a2 junction identified the b2/a2 breakpoint in these cells (data not shown).
The sensitivity of the BV173 cells to b2/a2 antisense phosphorothioate oligodeoxynucleotides was assessed. Phosphorothioate oligodeoxynucleotides were prepared on either an Applied Biosystems Model 380B or 390Z Automated Synthesis instrument using conventional phosphoramidite monomers and manufacturer-recommended procedures, which included substitution of tetraethylthiuran (or an equivalent sulfur-donor reagent) for iodine-water-pyridine, […] reversed-phase preparative chromatography, detritylation, and obtaining the final product in the form of its sodium salt, all according to previously published methodology: Zon and Stec, in Oligonucleotides and Analogues A Practical Approach, F. Eckstein, Ed. (Oxford Univerisity Press, Oxford 1991), pp. 87-108; Zon and Geiser, Anti-Cancer Drug Design 6, 539 (1991); Vu and Hirschenbein, Tetrahedron Lett. 32, 3005-3008 (1991).
BV173 cells were cultured in the presence of phosphorothioate b2/a2 antisense 26-mer CGCTGAAGGG CTTCTTCCT ATTGAT (SEQ ID NO:29), the phosphorothioate sense sequence ATCAATAAGGAAGCCCTTCAGCG (SEQUENCE ID NO:34), or the b3/a2 (SEQ ID NO:31) or b1/a2 (SEQ ID N0:33) phosphorothioate antisense 26-mer. […] The sense oligomer SEQ ID NO:34 gave no inhibition (FIG. 7, -.largecircle.-) in comparison to untreated control cells (FIG. 7, -.quadrature.-).

The test system of data set [7] is BV173 cells. The data set can be described thus: Macroscopic examination / disease state of leukemic SCID mice. In kind it is in vivo, SCID mice (human leukemic cells). As for the experimental part:
Injection of the mice with BV173 cells induces a disease closely resembling that in human leukemia patients.
as §1

Setting [8] is: from day +21, 26 days after treatment (8 weeks).

For “SEQ ID NO:9: 18-mer antisense oligonucleotide GAAGGGCTTC TGCGTCTC completely complementary to the b1a2 junction (antisense GAAGGGCTTCTGCGTCTC; chemistry not given here)”, the leukemic cell number result in data set [1] is “significant reduction in leukemic cell number over the control and mismatch-treated cultures”.

Consider “SEQ ID NO:27: antisense oligodeoxynucleotide TACTGGCCGC TGAAGGGC complementary to 18 nucleotides of the second exon of c-abl (antisense TACTGGCCGCTGAAGGGC; DNA, backbone and methylation of C not given here)”, for which the “inhibition of the Ph1-positive cell line K562” value in the data set on K562 was “inhibition of the Ph^1 -positive cell line K562”. Besides, the “reducing bcr-abl protein levels” value in the data set with bcr-abl protein (Caracciolo et al., Science 245) is given as “effective in reducing bcr-abl protein levels”. Besides, the “specificity for the bcr-abl junction” value with bcr-abl protein (hybridization to message from untranslocated abl) is reported as “not specific for the bcr-abl junction, as it also hybridizes to the message from untranslocated abl”.

Take “SEQ ID NO:29: b2a2 antisense phosphorothioate 26-mer CGCTGAAGGGCTTCTTCCTT ATTGAT (antisense CGCTGAAGGGCTTCTTCCTTATTGAT; all phosphorothioate, sugars by position and methylation of C not given here)”: the “cell-associated accumulation of antisense oligomer in various organs” value in data set [2] was 4 to 60 µM. Moreover, the “CALLA+ cells in tissues” value in data set [3] (from day +7, 26 days after last treatment (6 weeks)) is listed as “No CALLA+ cells were detected”; in [3] (from day +21, 12 days after last treatment (6 weeks)) it was “not detected after antisense treatment”; in [3] (setting [8]) it was “not detected in the antisense-treated mouse”. Also, the “leukemic colonies, peripheral blood leukocytes” value in the data set with BV173 cells [4] (1 mg/day i.v. x9 from day +7, killed 26 days after last treatment (6 weeks)) is given as “no detectable colonies”. In addition, the “leukemic colonies, peripheral blood mononuclear cells” value in the data set with BV173 cells [4] (1 mg/mouse/day x9 from day +21, 12 days after last treatment (6 weeks), untreated 11.0±8.5) is 0 colonies. The “leukemic colonies, spleen” value in the data set with BV173 cells [4] (1 mg/mouse/day x9 from day +21, 12 days after last treatment (6 weeks), untreated 80.5±12.0) is 0 colonies. Moreover, the “leukemic colonies, bone marrow” value with BV173 cells [4] (1 mg/mouse/day x9 from day +21, 26 days after treatment (8 weeks)) is listed as “not after antisense treatment”. Further, the “mortality / survival outcome” value with BV173 cells [5] was “prolonged survival”. The “survival after i.v. injection of 10^6 BV173 cells” value with BV173 cells [5] is reported as at least 16 weeks. The “bcr-abl transcripts in tissues” value in [6] (from day +7, 12 days after last treatment (4 weeks), blood, spleen, bone marrow, liver, lung, brain) is given as “not in the antisense-treated mouse”; in [6] (setting [8]), “undetectable after antisense-treatment in each tissue analyzed except spleen”. In data set [6] (from day +7, 26 days after last treatment (6 weeks), blood leukocytes, spleen, bone marrow, liver, lung, brain), the “bcr-abl (b2/a2) transcripts in tissues” value is “no bcr-abl (b2/a2) transcripts in the tissues”. Also, in [6] (setting [8]), the “RT-PCR product (bcr-abl), spleen” value is “less abundant than in the sense-treated mouse”. This substance gave an inhibition of proliferation in the data set on BV173 cells (b2/a2) (3.0 μM, 9 days in culture) of 100%. For the same substance, the “inhibition of proliferation of BV173 cells” value in the data set with BV173 cells (b2/a2) (in comparison to untreated control cells (FIG. 7)) is given as “Only the b2/a2 antisense oligodeoxynucleotide inhibited the proliferation of BV173 cells”. The figures for the “apparently disease-free, days after injection of leukemic cells” value in the data set with BV173 cells [7] (1 mg/mouse x9 i.v. from day 7) and in the data set on BV173 cells [7] (1 mg/mouse x9 i.v. from day 21) were at least 42 days and at least 56 days, respectively. Moreover, the “protection from leukemic disease” value in the data set on BV173 cells [7] (SCID mice injected with BV173 cells) is “protected from the disease”. Besides, in the data set with BV173 cells [7] (from day +21, 26 days after treatment (8 weeks), FIG. 11), the “macroscopic examination: metastases / leukemic nodules in liver, kidneys, splenomegaly” value is on record as “not in antisense-treated animal”.
